Literature values as cited in patent US20060183719A1 (priority 2005, published 2006).
Read-outs that look alike come from different tables or passages of the source.

absorption (administered orally) | absorption (in vivo, po) | SMILES
about 90% | – | C[C@H]1c2cccc(O)c2C(=O)C2=C(O)[C@]3(O)C(=O)C(C(N)=O)=C(O)[C@@H](N(C)C)[C@@H]3[C@@H](O)[C@@H]21 [doxycycline]
– | about 90% | CN(C)c1ccc(O)c2c1CC1CC3C(N(C)C)C(O)=C(C(N)=O)C(=O)C3(O)C(O)=C1C2=O (centres unmarked) [minocycline]
